The values that follow come from patent US20100210635A1, “RENIN INHIBITORS” (Takeda Pharmaceutical Company Limited, priority 2006, published 2010).

pIC50: −log10 of the molar value. A value given as a limit tells only on which side of the number the result lay.

The first assay addresses T1, Recombinant human renin (Homo sapiens, UniProt P00797).
T1 construct: isolate the active form (residues 67-406); made in house; host or cells: FreeStyle 293-F cells (transient expression of pcDNA3.1(+)/hREN)
T1 sequence (P00797 67-406): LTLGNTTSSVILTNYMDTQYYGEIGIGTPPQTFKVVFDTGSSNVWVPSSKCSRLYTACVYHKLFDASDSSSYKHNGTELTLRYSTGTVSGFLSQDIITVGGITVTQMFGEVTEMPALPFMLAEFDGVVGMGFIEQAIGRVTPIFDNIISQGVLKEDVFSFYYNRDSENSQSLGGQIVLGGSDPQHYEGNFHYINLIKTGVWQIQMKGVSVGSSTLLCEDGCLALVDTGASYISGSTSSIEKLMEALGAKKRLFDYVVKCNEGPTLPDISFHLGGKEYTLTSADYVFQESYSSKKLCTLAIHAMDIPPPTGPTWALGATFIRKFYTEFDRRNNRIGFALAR
The assay can be described thus: In vitro enzymatic activity assay of Renin inhibitors (fluorescence, QXL520/HiLyteFluo488 peptide substrate).
Details: not given
It counts as biochemical. An excerpt:
Test compounds in varying concentrations may be reacted with recombinant human renin in the presence of substrate, e.g., QXL520-γ-Abu-Ile-His-Pro-Phe-His-Leu-Val-Ile-His-Thr-Lys (HiLyteFluo488)-Arg-OH (Anaspec, San Jose, Calif.). The reaction can be followed kinetically using fluorescence (excitation λ=485 nm; emission λ=538 nm). Inhibition constants (IC50) may be calculated by non-linear curve fitting of the compound concentrations and fluorescence intensities to the standard IC50 equation.
Solutions of test compounds in varying concentrations (<2 mM final concentration) are prepared in dimethyl sulfoxide (DMSO) and then diluted into assay buffer comprising 50 mM Hepes, 1 mM EDTA, 1 mM DTT, 0.1 mg/ml BSA, 0.01% Brij35, pH 7.4. Alternatively, the assay can be performed with a high BSA concentration, wherein the buffer contains an additional 2% BSA.
Recombinant human renin (3 nM final concentration) is added to the dilutions and pre-incubated with the compounds for 10 minutes at 37° C. As described in Examples A-C above, human Renin can be obtained by expressing preprorenin (residue 1-406) in mammalian cells, treating the prorenin (residues 24-406) contained in the culture supernatant with trypsin, and isolate the active form (residues 67-406). After pre-incubation, the reaction is initiated with 1 μM of substrate QXL520-γ-Abu-Ile-His-Pro-Phe-His-Leu-Val-Ile-His-Thr-Lys (HiLyteFluo488)-Arg-OH (Anaspec, San Jose, Calif.). The final DMSO in the assay is 5%. The total volume of the reaction mixture is 20 μL, which can be placed on Greiner 384-well small volume plates.
Renin activity may be determined via fluorescence (excitation λ=485 nm; emission λ=538 nm), e.g., on a Molecular Devices SPECTROmax GEMINI XPS. The fluorescence intensity is determined upon the addition of substrate and determined again after incubation at 37° C. for one hour. The fluorescence intensity of a blank (no inhibition) using vehicle alone is also determined. Renin activity is linearly proportional to the change in fluorescence observed (final−initial).
The percent inhibition of Renin at a given compound concentration is defined as:
100%×[1−(Fcompound/Fblank)]
where Fcompound is the observed fluorescence at a given concentration of test compound and Fblank is the observed fluorescence in the presence of vehicle alone.
The pIC50 value (negative log of the molar concentration of the compound that produces 50% inhibition) of a test compound is calculated by non-linear least squares curve fitting of the equation: […]
to percent inhibition versus compound concentration. The 50% inhibitory concentration (IC50) of a test compound is calculated by raising 10 to the negative pIC50 (10^−pIC50).
A word on the pIC50: it is −log10 of the IC50, conventionally taken in molar units. For the molecule `CCN(CC)C(=O)Oc1ccc(C[C@@H]2CNCCN2C(=O)CCc2ccccc2Oc2ccccc2)cc1` [Example 74, (R)-4-((1-(3-(2-phenoxyphenyl)propanoyl)piperazin-2-yl)methyl)-phenyl diethylcarbamate], the pIC50 was 5.30 to 6.30.

The assay is the same for the next values; noted with them: recombinant human renin 3 nM, 1 μM substrate, 37° C., pH 7.4; values given as ranges; read-out: IC50 of Exemplified Compounds Against Renin.
With `CC(=O)NCc1c(C)cc(C)nc1Oc1ccccc1CCC(=O)N1CCNC[C@H]1Cc1ccccc1` [Example 39, (R)—N-((2-(2-(3-(2-benzylpiperazin-1-yl)-3-oxopropyl)phenoxy)-4,6-dimethylpyridin-3-yl)methyl)acetamide], the negative logarithm of the IC50 (pIC50) is more than 6.30.
Still for that read-out and setting: then `O=C(COc1ccccc1Br)N1CCNC[C@H]1Cc1ccccc1` [Example 4, (R)-1-(2-Benzylpiperazin-1-yl)-2-(2-bromophenoxy)ethanone], with 4.30 to 5.30.
Same read-out and setting: then `CC(=O)NCCc1cc(C)ccc1Oc1cc(C)ccc1CCC(=O)N1CCNC[C@H]1Cc1ccccc1` [Example 27], with more than 6.30; and `COC(=O)COc1ccc(C[C@@H]2CNCCN2C(=O)CCc2ccccc2Cc2ccccc2CCNC(C)=O)cc1` [Example 92, (R)-Methyl 2-(4-((1-(3-(2-(2-(2-acetamidoethyl)benzyl)phenyl)propanoyl)piperazin-2-yl)methyl)phenoxy)acetate], with more than 6.30; and `CC(=O)NCCc1cc(C)ccc1Oc1ccc(C)cc1CCC(=O)N1CCNC[C@H]1Cc1ccccc1` [Example 25, (R)—N-(2-(2-(3-(2-Benzylpiperazin-1-yl)-3-oxopropyl)-4-methylphenoxy)-1-methylphenethyl)acetamide], with more than 6.30.
On the same count and under the same terms, then `O=C(C(Cc1ccccc1)c1ccccc1)N1CCNC[C@H]1Cc1ccccc1` (stereo partly drawn) [Example 6, 1-((R)-2-Benzylpiperazin-1-yl)-2,3-diphenylpropan-1-one], with 5.30 to 6.30; and `O=C(CCc1ccccc1Cc1ccccc1)N1CCNC[C@H]1Cc1ccccc1` [Example 53, (R)-3-(2-benzylphenyl)-1-(2-benzylpiperazin-1-yl)propan-1-one], with more than 6.30; and `O=C(Cc1ccccc1Oc1ccccc1)N1CCNC[C@H]1Cc1ccccc1` [Example 8, (R)-1-(2-Benzylpiperazin-1-yl)-2-(2-phenoxyphenyl)ethanone], with 4.30 to 5.30.
Consider `CC(=O)NCc1cc(C)ccc1Oc1cc(C)ccc1CCC(=O)N1CCNC[C@H]1Cc1ccccc1` [Example 46, (R)—N-(2-(2-(3-(2-benzylpiperazin-1-yl)-3-oxopropyl)-5-methylphenoxy)-5-methylbenzyl)acetamide], for which the pIC50 is more than 6.30.
On the same count and under the same terms, then `O=C(CCc1ccccc1Cc1ccc(Cl)cc1)N1CCNC[C@H]1Cc1ccccc1` [Example 56, (R)-1-(2-benzylpiperazin-1-yl)-3-(2-(4-chlorobenzyl)phenyl)propan-1-one], with more than 6.30; and `Cc1ccc(Oc2ccccc2CCC(=O)N2CCNC[C@H]2Cc2ccccc2)cc1` [Example 50, (R)-1-(2-benzylpiperazin-1-yl)-3-(2-(p-tolyloxy)phenyl)propan-1-one], with more than 6.30; and `NC(=O)c1cccc(Oc2ccccc2CCC(=O)N2CCNC[C@H]2Cc2ccccc2)c1` [Example 37, (R)-3-(2-(3-(2-benzylpiperazin-1-yl)-3-oxopropyl)phenoxy)benzamide], with 5.30 to 6.30.
The same measure, in the same setting: to `O=C(CCc1nc(-c2ccccc2)c(-c2ccccc2)o1)N1CCNC[C@H]1Cc1ccccc1` [Example 63, (R)-1-(2-benzylpiperazin-1-yl)-3-(4,5-diphenyloxazol-2-yl)propan-1-one] belongs 5.30 to 6.30; to `CC(=O)NCCc1ccccc1Cc1ccccc1CCC(=O)N1CCNC[C@H]1Cc1ccc(O)cc1` [Example 88, (R)—N-(2-(2-(3-(2-(4-hydroxybenzyl)piperazin-1-yl)-3-oxopropyl)benzyl)phenethyl)acetamide], more than 6.30; to `NC(=O)COc1ccc(C[C@@H]2CNCCN2C(=O)CCc2ccccc2Oc2ccccc2)cc1` [Example 70, (R)-2-(4-((1-(3-(2-phenoxyphenyl)propanoyl)piperazin-2-yl)methyl)phenoxy)acetamide], more than 6.30.
`CC(=O)NCCc1ccccc1Cc1ccccc1CCC(=O)N1CCNC[C@H]1Cc1ccc(C(=O)NS(C)(=O)=O)cc1` [Example 93, (R)-4-((1-(3-(2-(2-(2-acetamidoethyl)benzyl)phenyl)propanoyl)piperazin-2-yl)methyl)-N-(methylsulfonyl)benzamide]: the pIC50 is more than 6.30.
Same read-out and setting: to `O=C(O)COc1ccc(C[C@@H]2CNCCN2C(=O)CCc2ccccc2Oc2ccccc2)cc1` [Example 86, (R)-2-(4-((1-(3-(2-phenoxyphenyl)propanoyl)piperazin-2-yl)methyl)phenoxy)acetic acid] belongs 5.30 to 6.30.
The same measure, in the same setting: then `CC(=O)NCCc1ccccc1Oc1ccccc1CCC(=O)N1CCNC[C@H]1Cc1ccc(OCC(N)=O)cc1` [Example 81, (R)-2-(4-((1-(3-(2-(2-(2-acetamidoethyl)phenoxy)phenyl)propanoyl)piperazin-2-yl)methyl)phenoxy)acetamide], with more than 6.30.
On to `CC(=O)NCCc1ccccc1Oc1ccc(C)cc1CCC(=O)N1CCNC[C@H]1Cc1ccccc1` [Example 26, (R)—N-(2-(2-(3-(2-Benzylpiperazin-1-yl)-3-oxopropyl)-4-methylphenoxy)phenethyl)acetamide], for which the pIC50 is more than 6.30.
As to `O=C(CCc1nc2ccccc2oc1=O)N1CCNC[C@H]1Cc1ccccc1` [Example 55, (R)-3-(3-(2-benzylpiperazin-1-yl)-3-oxopropyl)-2H-benzo[b][1,4]-oxazin-2-one], the negative-log IC50 (pIC50) is 4.30 to 5.30.
Same read-out and setting: to `CC(=O)NCCc1ccccc1Cc1ccccc1CCC(=O)N1CCNC[C@H]1Cc1ccccc1` [Example 84, (R)—N-(2-(2-(3-(2-benzylpiperazin-1-yl)-3-oxopropyl)benzyl)phenethyl)acetamide] belongs more than 6.30; to `O=S(=O)(CC(c1ccccc1)c1ccccc1)N1CCNC[C@H]1Cc1ccccc1` [Example 13, (R)-2-Benzyl-1-(2,2-diphenylethylsulfonyl)piperazine], 5.30 to 6.30.
Still for that read-out and setting: then `N#Cc1ccccc1Oc1ccccc1CCC(=O)N1CCNC[C@H]1Cc1ccccc1` [Example 30, (R)-2-(2-(3-(2-benzylpiperazin-1-yl)-3-oxopropyl)phenoxy)benzonitrile], with 5.30 to 6.30; and `Cc1ccc(C(CC(=O)N2CCNC[C@H]2Cc2ccccc2)N2Cc3ccccc3C2=O)cc1` (stereo partly drawn) [Example 14, 2-(3-((R)-2-Benzylpiperazin-1-yl)-3-oxo-1-p-tolylpropyl)isoindolin-1-one], with 5.30 to 6.30; and `O=C(CCc1ccccc1OCCCO)N1CCNC[C@H]1Cc1ccccc1` [Example 76, (R)-1-(2-benzylpiperazin-1-yl)-3-(2-(3-hydroxypropoxy)phenyl)-propan-1-one], with 5.30 to 6.30.
Turning to `O=C(CSC(c1ccccc1)c1ccccc1)N1CCNC[C@H]1Cc1ccccc1` [Example 65, (R)-2-(benzhydrylthio)-1-(2-benzylpiperazin-1-yl)ethanone], the pIC50 is 5.30 to 6.30.
Same read-out and setting: then `O=C(Cc1ccccc1-c1ccc(F)cc1)N1CCNC[C@H]1Cc1ccccc1` [Example 3, (R)-1-(2-Benzylpiperazin-1-yl)-2-(4′-fluorobiphenyl-2-yl)ethanone], with 5.30 to 6.30; and `O=C(CCc1ccccc1Oc1ccccc1CO)N1CCNC[C@H]1Cc1ccccc1` [Example 87, (R)-1-(2-benzylpiperazin-1-yl)-3-(2-(2-(hydroxymethyl)phenoxy)phenyl)propan-1-one], with more than 6.30.
For the molecule `CN(C)C(=O)COc1ccc(C[C@@H]2CNCCN2C(=O)CCc2ccccc2Oc2ccccc2)cc1` [Example 71, (R)—N,N-dimethyl-2-(4-((1-(3-(2-phenoxyphenyl)propanoyl)piperazin-2-yl)methyl)phenoxy)acetamide], the pIC50 was 5.30 to 6.30.
